Values after ≈ are worked out from the molar mass of the structure shown. Read-outs that look alike come from different tables or passages of the source.
What was measured:
[1] = system: M. suipneumoniae MS 16; assay: MIC against mycoplasma in vitro; type: cell-based; settings: Mesomycoplasma hyopneumoniae, MS16, 144 h
[2] = system: Ps. aeruginosa NCTC 10662; assay: MIC against human bacteria in vitro; type: cell-based; settings: Pseudomonas aeruginosa, NCTC10662; Ps. aeruginosa NCTC 10662; 5% chocolated horse blood agar, 18 hours; read-out: MIC
[3] = system: Staph. aureus Russell; assay: MIC against human bacteria in vitro; type: cell-based; settings: Staphylococcus aureus; Staph. aureus Russell; 5% chocolated horse blood agar, 18 hours; read-out: MIC
[4] = system: S. typhimurium S18; assay: MIC against veterinary bacteria in vitro; settings: Salmonella enterica, TYPHIMURIUM, 18 h
Protocol: (§1) The activity of the compounds of the Examples against various veterinarily important bacteria, was assayed in vitro using two-fold serial dilutions in Diagnostic Sensitivity Test Agar inoculated with 10^4 organisms.

[5] = system: M. suipneumoniae NB12; assay: MIC against mycoplasma in vitro; type: cell-based; settings: Mesomycoplasma hyopneumoniae
[6] = system: Staph. aureus 152 (pen. sens); assay: MIC against veterinary bacteria in vitro; settings: Staphylococcus aureus, 18 h
Protocol: as §1

[7] = system: Bord. bronchiseptica B09; assay: MIC against veterinary bacteria in vitro; settings: Bordetella bronchiseptica, B09, 18 h
Protocol: as §1

[8] = system: Strep. agalactiae SPA1; assay: MIC against veterinary bacteria in vitro; settings: Streptococcus agalactiae, SPA1, 18 h
Protocol: as §1

[9] = system: Staph. aureus W2827; assay: MIC against human bacteria in vitro; type: cell-based; settings: Staphylococcus aureus; Staph. aureus W2827; 5% chocolated horse blood agar, 18 hours; read-out: MIC
[10] = system: E. coli E1; assay: MIC against veterinary bacteria in vitro; settings: Escherichia coli, E1, 18 h
Protocol: as §1

[11] = system: Bord. bronchiseptica B08; assay: MIC against veterinary bacteria in vitro; settings: Bordetella bronchiseptica, B08, 18 h
Protocol: as §1

[12] = system: M. gallisepticum S6; assay: MIC against mycoplasma in vitro; type: cell-based; settings: Mycoplasmoides gallisepticum, S6, 144 h
[13] = system: Pasteurella multocida 1633; assay: MIC against human bacteria in vitro; type: cell-based; settings: Pasteurella multocida 1633; 5% chocolated horse blood agar, 18 hours; read-out: MIC
[14] = system: M. suipneumoniae NCTC 10110; assay: MIC against mycoplasma in vitro; type: cell-based; settings: Mesomycoplasma hyopneumoniae, NCTC10110, 144 h
[15] = system: Sarcina lutea 8340; assay: MIC against human bacteria in vitro; type: cell-based; settings: Micrococcus luteus; Sarcina lutea 8340; 5% chocolated horse blood agar, 18 hours; read-out: MIC
[16] = system: Staph. aureus Oxford; assay: MIC against veterinary bacteria in vitro; settings: Staphylococcus aureus, 18 h
Protocol: as §1

[17] = system: M. suipneumoniae JF 435; assay: MIC against mycoplasma in vitro; type: cell-based; settings: Mesomycoplasma hyopneumoniae, JF435, 144 h
[18] = system: M. suipneumoniae TAM 6N; assay: MIC against mycoplasma in vitro; type: cell-based; settings: Mesomycoplasma hyopneumoniae, TAM6N, 144 h
[19] = system: Haemophilus influenzae Wy21; assay: MIC against human bacteria in vitro; type: cell-based; settings: Haemophilus influenzae Wy21; 5% chocolated horse blood agar, 18 hours; read-out: MIC
[20] = system: M. bovigenitalium ATCC 14173; assay: MIC against mycoplasma in vitro; type: cell-based; settings: 144 h
[21] = system: Strep. spp. 64/848-C; assay: MIC against human bacteria in vitro; type: cell-based; settings: Strep. spp. 64/848-C; 5% chocolated horse blood agar, 18 hours; read-out: MIC
[22] = system: Past. multocida PA2; assay: MIC against veterinary bacteria in vitro; settings: Pasteurella multocida, PA2, 18 h
Protocol: as §1

[23] = system: M. suipneumoniae HK(2); assay: MIC against mycoplasma in vitro; type: cell-based; settings: Mesomycoplasma hyopneumoniae, 144 h
[24] = system: M. suipneumoniae ATCC 25095; assay: MIC against mycoplasma in vitro; type: cell-based; settings: Mesomycoplasma hyopneumoniae, ATCC25095, 144 h
[25] = system: E. coli NCTC 10418; assay: MIC against veterinary bacteria in vitro; settings: Escherichia coli, NCTC10418, 18 h
Protocol: as §1

[26] = system: Erysipelothrix rhusiopathiae NCTC 8163; assay: MIC against veterinary bacteria in vitro; settings: Erysipelothrix rhusiopathiae, NCTC8163, 18 h
Protocol: as §1

[27] = system: M. pneumoniae ATCC 15492; assay: MIC against mycoplasma in vitro; type: cell-based; settings: Mycoplasmoides pneumoniae, ATCC15492, 144 h
[28] = system: Strep. suis (group D) SPS11; assay: MIC against veterinary bacteria in vitro; settings: Streptococcus suis, 18 h
Protocol: as §1

[29] = system: Strep. agalactiae 2788-B; assay: MIC against human bacteria in vitro; type: cell-based; settings: Streptococcus agalactiae; Strep. agalactiae 2788-B; 5% chocolated horse blood agar, 18 hours; read-out: MIC
[30] = system: S. dublin S7; assay: MIC against veterinary bacteria in vitro; settings: Salmonella enterica, S7, 18 h
Protocol: as §1

[31] = system: E. coli ESS; assay: MIC against human bacteria in vitro; type: cell-based; settings: Escherichia coli; E. coli ESS; 5% chocolated horse blood agar, 18 hours; read-out: MIC
[32] = system: M. suipneumoniae UCD 1; assay: MIC against mycoplasma in vitro; type: cell-based; settings: Mesomycoplasma hyopneumoniae, UCD1, 144 h
[33] = system: M. hyorhinis ATCC 23234; assay: MIC against mycoplasma in vitro; type: cell-based; settings: Mesomycoplasma hyorhinis, ATCC23234, 144 h

Row | SMILES | MIC [2] [µg/mL] | MIC [3] [µg/mL] | MIC [4] [µg/mL] | MIC [6] [µg/mL] | MIC [7] [µg/mL] | MIC [8] [µg/mL] | MIC [9] [µg/mL] | MIC [10] [µg/mL] | MIC [11] [µg/mL] | MIC [12] [µg/mL] | MIC [13] [µg/mL] | MIC [15] [µg/mL] | MIC [16] [µg/mL] | MIC [19] [µg/mL] | MIC [20] [µg/mL] | MIC [21] [µg/mL] | MIC [22] [µg/mL] | MIC [25] [µg/mL] | MIC [26] [µg/mL] | MIC [27] [µg/mL] | further results
1 | C/C(=C\c1ncc(-c2ccc(C#N)cc2)o1)C[C@@H]1OC[C@H](C[C@@H]2O[C@H]2[C@@H](C)[C@H](C)O)[C@@H](O)[C@H]1O [Example 21, 5-p-Cyanophenyl-2-(1-normon-2-yl) oxazole A] | > 128 | 4 (≈ 8.54 µM) | > 80 | 0.625 (≈ 1.33 µM) | 10 (≈ 21.3 µM) | 1.25 (≈ 2.67 µM) | 4 (≈ 8.54 µM) | > 80 | 40 (≈ 85.4 µM) | 0.25 (≈ 0.534 µM) | 8 (≈ 17.1 µM) | > 128 | 2.5 (≈ 5.34 µM) | 2 (≈ 4.27 µM) | 0.05 (≈ 0.107 µM) | 4 (≈ 8.54 µM) | 0.625 (≈ 1.33 µM) | > 80 | 40 (≈ 85.4 µM) | 0.25 (≈ 0.534 µM) | MIC [1]: 0.25 µg/mL (≈ 0.534 µM); MIC ([5]; NB12, 144 h): 0.25 µg/mL (≈ 0.534 µM); MIC ([14]; M. suipneumoniae NCTC 10110, 6 days, 37° C., read-out: MIC): 0.5 µg/mL (≈ 1.07 µM); MIC ([17]; M. suipneumoniae JF 435, 6 days, 37° C., read-out: MIC): 0.5 µg/mL (≈ 1.07 µM); MIC ([18]; M. suipneumoniae TAM 6N, 6 days, 37° C., read-out: MIC): 0.5 µg/mL (≈ 1.07 µM); MIC ([23]; M. suipneumoniae HK(2), 6 days, 37° C., read-out: MIC): 0.5 µg/mL (≈ 1.07 µM); MIC [24]: 0.25 µg/mL (≈ 0.534 µM); MIC [28]: 10 µg/mL (≈ 21.3 µM); MIC [29]: 4 µg/mL (≈ 8.54 µM); MIC [30]: > 80 µg/mL; MIC [31]: 4 µg/mL (≈ 8.54 µM); MIC [32]: 0.25 µg/mL (≈ 0.534 µM); MIC [33]: 0.25 µg/mL (≈ 0.534 µM)
2 | C/C(=C\c1ncc(-c2cccc(S(C)(=O)=O)c2)o1)C[C@@H]1OC[C@H](C[C@@H]2O[C@H]2[C@@H](C)[C@H](C)O)[C@@H](O)[C@H]1O [Example 23, 5-m-Methylsulphonylphenyl-2-(1-normon-2-yl) oxazole A] | > 64 | 16 (≈ 30.7 µM) | > 80 | 2.5 (≈ 4.79 µM) | 40 (≈ 76.7 µM) | 2.5 (≈ 4.79 µM) | 16 (≈ 30.7 µM) | > 80 | > 80 | 1 (≈ 1.92 µM) | 2 (≈ 3.83 µM) | > 128 | 10 (≈ 19.2 µM) | 1 (≈ 1.92 µM) | 0.1 (≈ 0.192 µM) | 2 (≈ 3.83 µM) | 2.5 (≈ 4.79 µM) | > 80 | > 80 | 1 (≈ 1.92 µM) | MIC ([1]; M. suipneumoniae MS 16, 6 days, 37° C., read-out: MIC): 0.5 µg/mL (≈ 0.959 µM); MIC ([5]; 144 h, M. suipneumoniae NB12, Friis broth, 0.9% agarose, 6 days, 37° C., read-out: MIC): 0.5 µg/mL (≈ 0.959 µM); MIC [14]: 1 µg/mL (≈ 1.92 µM); MIC [17]: 1 µg/mL (≈ 1.92 µM); MIC [18]: 1 µg/mL (≈ 1.92 µM); MIC [23]: 1 µg/mL (≈ 1.92 µM); MIC ([24]; M. suipneumoniae ATCC 25095, 6 days, 37° C., read-out: MIC): 0.5 µg/mL (≈ 0.959 µM); MIC [28]: 10 µg/mL (≈ 19.2 µM); MIC [29]: 2 µg/mL (≈ 3.83 µM); MIC [30]: > 80 µg/mL; MIC [31]: 4 µg/mL (≈ 7.67 µM); MIC [32]: 1 µg/mL (≈ 1.92 µM); MIC ([33]; M. hyorhinis ATCC 23234, 6 days, 37° C., read-out: MIC): 0.5 µg/mL (≈ 0.959 µM)

From patent US5041567A, “Antibacterial monic acid derivatives” (Beecham Group plc, priority 1982, dated 1991)
